Laboratory results reported in patent US5445956A, “Recombinant soluble epoxide hydrolase” (The Regents of the University of California, priority 1993, dated 1995).

Tests used:
[1] = system: sEH of various species (mouse, rabbit, primate); conditions: Dietze et al. 1991, 1993, read-out: I50; cited from earlier work
human sEH [2] = biological target: T1, human sEH (Homo sapiens, UniProt P34913); experiment: Human soluble EH activity in lysates of Sf21 cells infected with recombinant AcNPV, TSO and CSO as substrates; type: biochemical; conditions: for inhibition at 62.5 µM: preincubation of lysates from human sEH expressing cells with inhibitor (62.5 μM, Table II), read-out: inhibition of the hydrolysis of TSO and CSO
T1 construct: made in house; host or cells: Spodoptera frugiperda Sf21 cells infected with recombinant AcNPV (AchsEH1)
T1 sequence (P34913 1-555): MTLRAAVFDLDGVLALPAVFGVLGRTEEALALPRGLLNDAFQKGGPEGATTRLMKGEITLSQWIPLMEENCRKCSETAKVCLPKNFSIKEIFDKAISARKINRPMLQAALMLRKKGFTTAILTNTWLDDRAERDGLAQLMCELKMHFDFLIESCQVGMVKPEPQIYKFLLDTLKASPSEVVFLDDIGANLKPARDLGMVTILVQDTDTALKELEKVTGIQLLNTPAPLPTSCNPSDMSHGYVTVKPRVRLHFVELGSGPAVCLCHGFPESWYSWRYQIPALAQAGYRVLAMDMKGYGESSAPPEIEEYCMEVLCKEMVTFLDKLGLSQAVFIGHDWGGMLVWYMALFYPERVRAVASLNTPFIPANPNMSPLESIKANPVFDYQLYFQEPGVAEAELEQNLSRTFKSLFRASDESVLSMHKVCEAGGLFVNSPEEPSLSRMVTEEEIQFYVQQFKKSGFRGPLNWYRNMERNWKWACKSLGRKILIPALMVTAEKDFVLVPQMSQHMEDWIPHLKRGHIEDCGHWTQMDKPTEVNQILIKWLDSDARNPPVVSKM
Source text: To obtain recombinant baculovirus, Spodoptera frugiperda 21 (Sf21) insect cells are cotransfected with plasmid pAcUW21-hsEH plus linearized DNA (AcRP6-SC) of Autographa californica nuclear polyhedrosis virus (AcNPV). […] The resulting virus plaque is purified as described by O'Reilly, D. R., et al., in Baculovirus Expresssion Vectors. A Labortory Manual, p. […] Cultures of Sf21 cells are then infected with recombinant AcNPV containing the human sEH sequence or with control AcNPV. Uninfected cultures are also maintained. Cultures are maintained 4 to 5 days post infection before harvesting proteins. For extraction of proteins, cells are washed (three times in 90 mM NaHPO4 pH7.4) then lysed (in 90 mM NaHPO4 pH7.4, 1 mM EDTA, 1 mM phenylmethylsulfonyl fluoride) by 3 cycles of freeze thawing (dry ice ethanol and 37° C. H2 O baths).
A., and B. D. Hammock in Arch. […] Biochem. Biophys.

sEH = conditions: inhibits only very weakly other enzymes that catalyze hydrolysis or conjugation of epoxides; Mullin and Hammock 1982, Prestwich 1985; cited from earlier work
[3] = system: basal sEH activity of COS-7 cells; experiment: Basal epoxide hydrolase activity (TSO) in extracts of vector-control or mock transfected COS-7 cells; type: biochemical, monkey
Method: (§1) To detect soluble epoxide hydrolase activity or to monitor its relative purity, one uses the partition assay of Wixtrom, R. N., and B. D. Hammock in Biochemical Pharmacoloyt and Toxicology (Zakim, D., and Vessey, D. A., Eds), Vol. 1, pp. 1-93. Wiley, New York ([…]) with [^3 H]-trans-stilbene oxide ([^3 H]TSO) as substrate, incorporated herein by reference. In brief this assay entails: coincubating the enzyme with radiolabled substrate that is much more soluble in organic than aqueous solutions. Next, the enzyme substrate is extracted with organic solvent such that the substrate partitions into the organic phase but the more polar and water-soluble product (a vicinal diol) partitions to the aqueous phase. An aliquot of the aqueous phase is then analyzed for concentration of product by quantification of radioactivity. The substrate [^3 H]TSO is prepare by the method described by Gill, S. S., et al., in Anal. Biochem., 131:273-282 (1993) incorporated herein by reference.
(§2) cos-7 cells are grown as a monolayer culture in Dulbecco's modified Eagle's medium (ICN) containing 10% fetal calf serum (ICN) plus penicillin G (100 U/ml) and streptomycin sulfate (100 ug/ml). Cell transfections are mediated by lipofectin (Gibco) according to standard protocol. Approximately 1×10^6 cells are transfected in 100 mm dishes with 5 ug of murine sEH-pJ3omega, 5 ug pJ3omega vector control or a mock transfection control containing lipofectin only (60 ul/plate). All transfections except the mock transfection control contain 2.5 ug of the beta-galactosidase plasmid, pSV-beta-Gal (Promega) can be used as an internal positive control. After 36 hours, cells are washed 5 times with PBS and collected by scraping into 1.5 ml centrifuge tubes. The cells are then pelleted (12 k×g, 4° C., 30 seconds), resuspended in 150 ul of lysis buffer (40 mM tris, pH 8.0, 150 mM NaCl, 0.2 mM PMSF, 1 mM EDTA) and lysed by 3 cycles of freezing and thawing. The cells are again centrifuged and the supernatant used for enzyme assays and protein determination. Beta-galactosidase is assayed as described (Sambrook et al., 1989). sEH activity is assayed using TSO as described by the method of Wixtrom, R. N. and B. D. Hammock in Biochemical Pharmacology and Toxicology, (Zakim, D. and Vessey, D. A., ed.) 1:1-93 (1985).
The functional analysis of recombinant murine sEH expressed in COS-7 cells was performed following the methods described above. […] Transfected cells expressed approximately the same level of sEH activity as did mock transfected cells when 1 mM t-ENPG was included in the enzyme assay. […] The differences in specific activity among the experiments in Table I are most likely due to differences in cell density during transfections.
As well as detecting the transiently expressed sEH, the anti-rhesus-sEH antiserum also detected a protein that migrates identically with mouse sEH.

[4] = system: monkey and murine microsomal EH; conditions: at 2 mM; cited from earlier work
murine sEH = biological target: T2, murine sEH (Mus musculus, UniProt P34914); experiment: Epoxide hydrolase activity (TSO partition assay) in extracts of COS-7 cells transfected with murine sEH expression vector; type: biochemical; conditions: psEH-pJ3omega transfected COS-7 cells + t-ENPG 1 mM final concentration
T2 construct: A primer pair to amplify the entire coding region is; expressed in transfected cells; host or cells: COS-7
T2 sequence (P34914 1-554): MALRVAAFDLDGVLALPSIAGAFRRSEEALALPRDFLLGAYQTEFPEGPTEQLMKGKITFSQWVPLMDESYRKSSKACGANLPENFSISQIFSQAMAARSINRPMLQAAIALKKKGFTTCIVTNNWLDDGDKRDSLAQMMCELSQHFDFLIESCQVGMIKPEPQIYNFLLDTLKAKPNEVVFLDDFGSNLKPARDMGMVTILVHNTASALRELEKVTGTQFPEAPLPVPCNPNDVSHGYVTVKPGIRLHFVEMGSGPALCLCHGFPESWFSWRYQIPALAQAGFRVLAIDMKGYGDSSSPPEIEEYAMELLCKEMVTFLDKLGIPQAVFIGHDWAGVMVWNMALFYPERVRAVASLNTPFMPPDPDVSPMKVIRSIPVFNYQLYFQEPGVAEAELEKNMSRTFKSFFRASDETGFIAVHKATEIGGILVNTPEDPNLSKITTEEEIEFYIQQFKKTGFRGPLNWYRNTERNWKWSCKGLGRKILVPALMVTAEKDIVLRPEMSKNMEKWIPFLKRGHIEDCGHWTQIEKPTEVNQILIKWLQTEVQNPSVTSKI
Method: as §1
as §2, with “Beta-galactosidase is assayed as described (Sambrook et al., 1989). sEH activity is assayed using TSO as described by the method of Wixtrom, R. N. and B. D. Hammock in Biochemical Pharmacology and Toxicology, (Zakim, D. and Vessey, D. A., ed.) 1:1-93 (1985).” left out

soluble EH = conditions: at 8 uM; cited from earlier work
human sEH [5] = biological target: T1, human sEH; experiment: Heat lability of expressed human sEH; type: biochemical; conditions: enzyme assay mixture preincubated 15 min at 65° C.
[6] = AchsEH1 infected Sf21 lysate, inhibitor 62.5 μM, ND = no activity detected where 0.65 was distinguishable above background

Molecule: O=[N+]([O-])c1ccc([C@H]2O[C@@H]2CO)cc1 [RRNPG, (2R,3R)-3-(4-nitrophenyl) glycidol]
- IC50 [1]: > 690 µM
- specific activity remaining with inhibitor, substrate CSO (human sEH [2]; [6]): 19.8 (1.26) nmoles TSO or CSO converted to
- inhibition at 62.5 µM (human sEH [2]): 39%

Molecule: O=C(c1ccccc1)C1OC1c1ccc(F)cc1 (centres unmarked) [4FCO, 4-fluorochalcone oxide]
- selectivity for sEH (sEH): very selective inhibitor of sEH
- inhibition at 62.5 µM (human sEH [2]): 100%

Molecule: O=[N+]([O-])c1ccc([C@@H]2O[C@H]2CO)cc1 [SSNPG, (2S,3S)-3-(4-nitrophenyl) glycidol]
- IC50 [1]: 1 to 10 µM
- specific activity remaining with inhibitor, substrate TSO (human sEH [2]; [6]): 5.73 (0.56) nmoles TSO or CSO converted to
- inhibition at 62.5 µM (human sEH [2]): 73%

Molecule: O=[N+]([O-])c1ccc([C@@H]2O[C@H]2CO)cc1 [t-ENPG, trans2(S),3(S)-epoxy-3-(4-nitrophenyl) glycidol]
- Epoxide hydrolase activity (±S.D.) remaining with inhibitor ([3]; Experiment 1, mock transfected COS-7 cells + t-ENPG 1 mM): 74 ± 6 pmol·min/mg
- Epoxide hydrolase activity (±S.D.) remaining with inhibitor ([3]; Experiment 1, pJ3omega vector control transfected COS-7 cells + t-ENPG 1 mM): 69 ± 6 pmol·min/mg
- Epoxide hydrolase activity (±S.D.) remaining with inhibitor ([3]; Experiment 2, mock transfected COS-7 cells + t-ENPG 1 mM): 106 ± 5 pmol·min/mg
- Epoxide hydrolase activity (±S.D.) remaining with inhibitor ([3]; Experiment 2, pJ3omega vector control transfected COS-7 cells + t-ENPG 1 mM): 97 ± 4 pmol·min/mg
- Epoxide hydrolase activity (±S.D.) remaining with inhibitor ([3]; Experiment 3, mock transfected COS-7 cells + t-ENPG 1 mM): 88 ± 2 pmol·min/mg
- Epoxide hydrolase activity (±S.D.) remaining with inhibitor ([3]; Experiment 3, pJ3omega vector control transfected COS-7 cells + t-ENPG 1 mM): 113 ± 8 pmol·min/mg
- inhibition of microsomal EH [4]: ≤ 23%
- Epoxide hydrolase activity (±S.D.) remaining with inhibitor (murine sEH; Experiment 1): 76 ± 20 pmol·min/mg
- Epoxide hydrolase activity (±S.D.) remaining with inhibitor (murine sEH; Experiment 2): 109 ± 4 pmol·min/mg
- Epoxide hydrolase activity (±S.D.) remaining with inhibitor (murine sEH; Experiment 3): 134 ± 6 pmol·min/mg
- inhibition of soluble EH (soluble EH): ≥ 50%

B1: expressed human sEH: recombinant human soluble epoxide hydrolase (Seq ID No.2) expressed in Sf21 cells (protein)
chain: MTLRGAVFDLDGVLALPAVFGVLGRTEEALALPRGLLNDAFQKGGPEGATTRLMKGEITLSQWIPLMEENCRKCSETAKVCLPKNFSIKEIFDKAISARKINRPMLQAALMLRKKGFTTAILTNTWLDDRAERDGLAQLMCELKMHFDFLIESCQVGMVKPEPQIYKFLLDTLKASPSEVVFLDDIGANLKPARDLGMVTILVQDTDTALKELEKVTGIQLLNTPAPLPTSCNPSDMSHGYVTVKPRVRLHFVELGWPAVCLCHGFPESWYSWRYQIPALAQAGYRVLAMDMKGYGESSAPPEIEEYCMEVLCKEMVTFLDKLGLSQAVFIGHDWGGMLVWYMALFYPERVRAVASLNTPFIPANPNMSPLESIKANPVFDYQLYFQEPGVAEAELEQNLSRTFKSLFRASDESVLSMHKVCEAGGLFVNSPEEPSLSRMVTEEEIQFYVQQFKKSGFRGPLNWYRNMERNWKWACKSLGRKILIPALMVTAEKDFVLVPQMSQHMEDWIPHLKRGHIEDCGHWTQMDKPTEVNQILIKWLDSDARNPPVVSKM
- inhibition of activity by heat (heat lability) (human sEH [5]): 100%
